# Patent US9701689B2, “Substituted pyridines and pyridazines as CCR10 receptor inhibitors” (KYOWA HAKKO KIRIN CO., LTD., priority 2012, dated 2017)
# Biological target: T1, human CCR10 (Homo sapiens, UniProt P46092)
# T1 construct: expressed in transfected cells; host or cells: KJMGER8 cells (Namalwa cell-derived line), beta-estradiol-induced; hCCR10G16 cells
# T1 sequence (P46092 1-362): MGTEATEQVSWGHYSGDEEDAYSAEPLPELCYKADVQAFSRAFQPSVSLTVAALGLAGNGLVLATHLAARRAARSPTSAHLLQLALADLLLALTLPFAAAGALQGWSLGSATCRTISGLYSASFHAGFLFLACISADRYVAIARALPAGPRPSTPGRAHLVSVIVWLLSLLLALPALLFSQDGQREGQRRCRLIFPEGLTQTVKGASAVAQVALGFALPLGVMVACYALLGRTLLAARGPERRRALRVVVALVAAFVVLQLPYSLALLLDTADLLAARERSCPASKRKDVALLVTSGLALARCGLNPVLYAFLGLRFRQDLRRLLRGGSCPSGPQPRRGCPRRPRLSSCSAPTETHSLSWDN
# Assay: CCR10 antagonistic effect: calcium assay of human CCR10 (CTACK-induced increase of intracellular calcium in hCCR10G16 cells)
# Format: cell-based
# Conditions: at a concentration of not more than 1000 nmol/L; human CCR10-expressing hCCR10G16 cells, 300 nmol/L CTACK added; read-out: inhibition of increase in the calcium ion concentration
# Summary of the method: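 KJMGER8-derived hCCR10G16 cells (CCR10 plus Gα16, induced 24 h with 10 nmol/L β-estradiol), Fluo-3 loaded, preincubated with compound 30 min at 37 °C. Stimulated with CTACK (300 nmol/L solution before addition); calcium read ~5 min by FDSS, max−min fluorescence; % inhibition vs control.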
row,SMILES,inhibition at up to 1 µM
1,"NS(=O)(=O)c1ncc(C(=O)N2CCC(c3ccc(F)cc3)CC2)c(NC2CCc3ccccc32)c1Cl (stereo not drawn) [Compound 237, 3-chloro-4-(2,3-dihydro-1H-inden-1-ylamino)-5-[4-(4-fluorophenyl)piperidine-1-carbonyl]pyridine-2-sulfonamide]",≥ 50%
2,"NS(=O)(=O)c1ncc(C(=O)N2CCC(c3ccc(F)cc3)CC2)c(Oc2cccc(F)c2)c1Cl [Compound 238, 3-chloro-4-(3-fluorophenoxy)-5-[4-(4-fluorophenyl)piperidine-1-carbonyl]pyridine-2-sulfonamide]",≥ 50%
3,"CCc1ccccc1Nc1c(C(=O)N2CCC(c3ccc(F)cc3)CC2)cnc(S(=O)(=O)Nc2ccon2)c1C [Compound 239, 4-(2-ethylphenylamino)-5-[4-(4-fluorophenyl)piperidine-1-carbonyl]-N-(isoxazol-3-yl)-3-methylpyridine-2-sulfonamide]",≥ 50%
4,"Cc1cc(F)ccc1Nc1c(C(=O)N2CCC(c3ccc(F)cc3)CC2)nnc(S(N)(=O)=O)c1Cl [Compound 240, 4-chloro-5-(4-fluoro-2-methylphenylamino)-6-[4-(4-fluorophenyl)piperidine-1-carbonyl]pyridazine-3-sulfonamide]",≥ 50%
5,"Cn1ncc2cc(Nc3c(C(=O)N4CCC(c5ccc(F)cc5)CC4)cnc(S(N)(=O)=O)c3Cl)ccc21 [Compound 242, 3-chloro-5-[4-(4-fluorophenyl)piperidine-1-carbonyl]-4-(1-methyl-1H-indazol-5-ylamino)pyridine-2-sulfonamide]",≥ 50%
6,"NS(=O)(=O)c1ncc(C(=O)N2CCC(c3ccc(F)cc3)CC2)c(Nc2ccc3c(c2)CCC3=O)c1Cl [Compound 243, 3-chloro-5-[4-(4-fluorophenyl)piperidine-1-carbonyl]-4-(1-oxo-2,3-dihydro-1H-inden-5-ylamino)pyridine-2-sulfonamide]",≥ 50%
7,"Cc1c(S(=O)(=O)Nc2ccon2)ncc(C(=O)N2CCC(c3ccc(F)cc3)CC2)c1Nc1cccc(Cl)c1 [Compound 244, 4-(3-chlorophenylamino)-5-[4-(4-fluorophenyl)piperidine-1-carbonyl]-N-(isoxazol-3-yl)-3-methylpyridine-2-sulfonamide]",≥ 50%
8,"Cc1nc(C(F)(F)F)ccc1Nc1c(C(=O)N2CCC(c3ccc(F)cc3)CC2)cnc(S(N)(=O)=O)c1C [Compound 245, 5-[4-(4-fluorophenyl)piperidine-1-carbonyl]-3-methyl-4-[2-methyl-6-(trifluoromethyl)pyridin-3-ylamino]pyridine-2-sulfonamide]",≥ 50%
9,"Cc1c(S(=O)(=O)Nc2ccon2)ncc(C(=O)N2CCC(c3ccc(F)cc3)CC2)c1Nc1cc(F)c(F)cc1F [Compound 246, 5-[4-(4-fluorophenyl)piperidine-1-carbonyl]-N-(isoxazol-3-yl)-3-methyl-4-(2,4,5-trifluorophenylamino)pyridine-2-sulfonamide]",≥ 50%
10,"Cc1c(S(=O)(=O)Nc2ccon2)ncc(C(=O)N2CCC(c3ccc(F)cc3)CC2)c1Nc1ccc2c(c1)COC2 [Compound 247, 4-(1,3-dihydroisobenzofuran-5-ylamino)-5-[4-(4-fluorophenyl)piperidine-1-carbonyl]-N-(isoxazol-3-yl)-3-methylpyridine-2-sulfonamide]",≥ 50%
11,"Cc1ncc(Cl)cc1Nc1c(C(=O)N2CCC(c3ccc(F)cc3)CC2)cnc(S(=O)(=O)Nc2ccon2)c1C [Compound 248, 4-(5-chloro-2-methylpyridin-3-ylamino)-5-[4-(4-fluorophenyl)piperidine-1-carbonyl]-N-(isoxazol-3-yl)-3-methylpyridine-2-sulfonamide]",≥ 50%
12,"Cc1cccc(Oc2c(C(=O)N3CCC(c4ccc(F)cc4)CC3)cnc(S(=O)(=O)Nc3ccon3)c2C)c1 [Compound 249, 5-[4-(4-fluorophenyl)piperidine-1-carbonyl]-N-(isoxazol-3-yl)-3-methyl-4-(m-tolyloxy)pyridine-2-sulfonamide]",≥ 50%
13,"Cc1c(S(=O)(=O)Nc2ccn(C)n2)ncc(C(=O)N2CCC(c3ccc(F)cc3)CC2)c1NCc1ccccc1 [Compound 250, 4-(benzylamino)-5-[4-(4-fluorophenyl)piperidine-1-carbonyl]-3-methyl-N-(1-methyl-1H-pyrazol-3-yl)pyridine-2-sulfonamide]",≥ 50%
14,"Cc1cc(NS(=O)(=O)c2ncc(C(=O)N3CCC(c4ccc(F)cc4)CC3)c(NCc3ccccc3)c2C)sn1 [Compound 251, 4-(benzylamino)-5-[4-(4-fluorophenyl)piperidine-1-carbonyl]-3-methyl-N-(3-methylisothiazol-5-yl)pyridine-2-sulfonamide]",≥ 50%
15,"Cc1c(S(=O)(=O)Nc2ccon2)ncc(C(=O)N2CCC(c3ccc(F)cc3)CC2)c1Nc1cc(F)ccc1F [Compound 252, 4-(2,5-difluorophenylamino)-5-[4-(4-fluorophenyl)piperidine-1-carbonyl]-N-(isoxazol-3-yl)-3-methylpyridine-2-sulfonamide]",≥ 50%
16,"Cc1c(S(N)(=O)=O)ncc(C(=O)N2CCN(c3ccc(F)cc3)C(=O)C2)c1NCc1ccccc1 [Compound 253, 4-(benzylamino)-5-[4-(4-fluorophenyl)-3-oxopiperazine-1-carbonyl]-3-methylpyridine-2-sulfonamide]",≥ 50%
17,"Cc1c(S(=O)(=O)Nc2ccon2)ncc(C(=O)N2CCC(c3ccc(F)cc3)CC2)c1Nc1cccc(F)c1F [Compound 254, 4-(2,3-difluorophenylamino)-5-[4-(4-fluorophenyl)piperidine-1-carbonyl]-N-(isoxazol-3-yl)-3-methylpyridine-2-sulfonamide]",≥ 50%
18,"Cc1c(S(=O)(=O)Nc2ccon2)ncc(C(=O)N2CCC(c3ccc(F)cc3)CC2)c1Nc1ccccc1F [Compound 255, 5-[4-(4-fluorophenyl)piperidine-1-carbonyl]-4-(2-fluorophenylamino)-N-(isoxazol-3-yl)-3-methylpyridine-2-sulfonamide]",≥ 50%
19,"N#Cc1cc(OC(F)(F)F)ccc1Nc1c(C(=O)N2CCC(c3ccc(F)cc3)CC2)cnc(S(N)(=O)=O)c1Cl [Compound 256, 3-chloro-4-[2-cyano-4-(trifluoromethoxy)phenylamino]-5-[4-(4-fluorophenyl)piperidine-1-carbonyl]pyridine-2-sulfonamide]",≥ 50%
20,"N#Cc1ccc(C(F)(F)F)cc1Nc1c(C(=O)N2CCC(c3ccc(F)cc3)CC2)cnc(S(N)(=O)=O)c1Cl [Compound 257, 3-chloro-4-[2-cyano-5-(trifluoromethyl)phenylamino]-5-[4-(4-fluorophenyl)piperidine-1-carbonyl]pyridine-2-sulfonamide]",≥ 50%
21,"Cc1c(S(=O)(=O)Nc2ccon2)ncc(C(=O)N2CCC(c3ccc(F)cc3)CC2)c1Nc1ccc(F)c(F)c1 [Compound 258, 4-(3,4-difluorophenylamino)-5-[4-(4-fluorophenyl)piperidine-1-carbonyl]-N-(isoxazol-3-yl)-3-methylpyridine-2-sulfonamide]",≥ 50%
22,"Cc1c(S(=O)(=O)Nc2ccon2)ncc(C(=O)N2CCC(c3ccc(F)cc3)CC2)c1Nc1ccc(Br)cc1 [Compound 260, 4-(4-bromophenylamino)-5-[4-(4-fluorophenyl)piperidine-1-carbonyl]-N-(isoxazol-3-yl)-3-methylpyridine-2-sulfonamide]",≥ 50%
23,"Cc1c(S(N)(=O)=O)ncc(C(=O)N2CCC3(CC2)COc2ccccc23)c1NCc1ccccc1 [Compound 261, 4-(benzylamino)-3-methyl-5-(2H-spiro[benzofuran-3,4′-piperidine]-1′-ylcarbonyl)pyridine-2-sulfonamide]",≥ 50%
24,"COC1(c2ccc(F)cc2)CCN(C(=O)c2cnc(S(N)(=O)=O)c(C)c2NCc2ccccc2)CC1 [Compound 262, 4-(benzylamino)-5-[4-(4-fluorophenyl)-4-methoxypiperidine-1-carbonyl]-3-methylpyridine-2-sulfonamide]",≥ 50%
25,"Cc1ccc(Nc2c(C(=O)N3CCC(c4ccc(F)cc4)CC3)cnc(S(=O)(=O)Nc3ccon3)c2C)cc1C [Compound 263, 4-(3,4-dimethylphenylamino)-5-[4-(4-fluorophenyl)piperidine-1-carbonyl]-N-(isoxazol-3-yl)-3-methylpyridine-2-sulfonamide]",≥ 50%
26,"Cc1cccc(Nc2c(C(=O)N3CCC(c4ccc(F)cc4)CC3)cnc(S(=O)(=O)Nc3ccon3)c2C)c1F [Compound 264, 4-(2-fluoro-3-methylphenylamino)-5-[4-(4-fluorophenyl)piperidine-1-carbonyl]-N-(isoxazol-3-yl)-3-methylpyridine-2-sulfonamide]",≥ 50%
27,"Cc1c(S(=O)(=O)Nc2ccon2)ncc(C(=O)N2CCC(c3ccc(F)cc3)CC2)c1Nc1cccc(Cl)c1F [Compound 265, 4-(3-chloro-2-fluorophenylamino)-5-[4-(4-fluorophenyl)piperidine-1-carbonyl]-N-(isoxazol-3-yl)-3-methylpyridine-2-sulfonamide]",≥ 50%
